The values that follow come from ChEMBL document CHEMBL3297661, “1-Substituted-5-[(3,5-dinitrobenzyl)sulfanyl]-1H-tetrazoles and their isosteric analogs: A new class of selective antitubercular agents active against drug-susceptible and multidrug-resistant mycobacteria” (Eur J Med Chem, 2014).

This assay deals with Mycobacterium tuberculosis. The experiment in a line: Antimycobacterial activity against Mycobacterium tuberculosis H37Rv. In kind it is functional.

Values after ≈ are worked out from the molar mass of the structure shown.

Compound `C[C@H]1COC2(CCN(c3nc(=O)c4cc(C(F)(F)F)cc([N+](=O)[O-])c4s3)CC2)O1` [BTZ-043] returned an MIC of 0.0023 µM (≈ 0.000992 µg/mL).
Regarding `O=[N+]([O-])c1cn2c(n1)OC[C@@H](OCc1ccc(OC(F)(F)F)cc1)C2` [PRETOMANID], the lowest concentration to inhibit growth (MIC) was 0.11 µM (≈ 0.0395 µg/mL).
The result for `C[C@]1(COc2ccc(N3CCC(Oc4ccc(OC(F)(F)F)cc4)CC3)cc2)Cn2cc([N+](=O)[O-])nc2O1` [DELAMANID] reads 0.02 µM (≈ 0.0107 µg/mL).
